Experimental data reported in patent US8957049B2, “Inhibitors of fatty acid amide hydrolase” (Infinity Pharmaceuticals, Inc., priority 2008, dated 2015).
Like-named read-outs stand apart in the source and are kept apart here.

Biological target: T1, human FAAH (Homo sapiens, UniProt O00519)
T1 construct: host or cells: COS-7 cells, transient transfection (FuGENE 6); 13,000 g membrane fraction solubilised in 1% Triton X-100
T1 sequence (O00519 1-579): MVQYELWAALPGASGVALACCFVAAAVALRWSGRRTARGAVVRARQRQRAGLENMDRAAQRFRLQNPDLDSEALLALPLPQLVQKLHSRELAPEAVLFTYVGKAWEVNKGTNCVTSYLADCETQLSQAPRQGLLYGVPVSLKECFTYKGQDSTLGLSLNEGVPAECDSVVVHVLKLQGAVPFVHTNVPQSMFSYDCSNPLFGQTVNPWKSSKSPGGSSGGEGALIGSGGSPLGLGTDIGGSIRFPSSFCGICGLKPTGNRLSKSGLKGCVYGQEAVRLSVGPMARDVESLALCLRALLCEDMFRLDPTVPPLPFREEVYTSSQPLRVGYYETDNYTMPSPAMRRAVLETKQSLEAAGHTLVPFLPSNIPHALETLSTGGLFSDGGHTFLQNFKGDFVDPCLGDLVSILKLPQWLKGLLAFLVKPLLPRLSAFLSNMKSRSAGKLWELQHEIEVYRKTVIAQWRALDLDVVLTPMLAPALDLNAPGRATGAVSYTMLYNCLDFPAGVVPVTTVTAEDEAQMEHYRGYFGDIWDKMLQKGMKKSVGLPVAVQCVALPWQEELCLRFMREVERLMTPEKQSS
Test: Human FAAH biochemical inhibition assay (AMC arachidonoyl amide fluorescence)
Experimental: Exemplary compounds are set forth in the Examples provided below. Compounds were assayed as inhibitors of human FAAH using the method described in detail in Example 286.
The following assays may be used to determine the inhibition of FAAH by the compounds of the present invention: (1) a fluorescence-based assay for fatty acid amide hydrolase compatible with high-throughput screening as described in Manjunath et al., Analytical Biochemistry (2005) 343:143-151; and (2) a high-throughput screening for the discovery of inhibitors of fatty acid amide hydrolase using a microsome-based fluorescent assay. Wang et al., Biomolecular Screening (2006) 1-9.
COS-7 cells were split the day before, 1:5 into 150 mm×25 mm cell culture dishes (Corning Inc., Cat. No. 430599). Transient transfection took place at 30-40% confluency according to FuGENE 6 Transfection Reagent (Roche, Cat. No. 11814 443 001).
The FuGENE transfection 6 reagent (45 uL) was added to 1410 μL of media (DMEM, serum free without pen/strep) in a 15 mL conical tube and incubated at room temp for 5 minutes, followed by the addition of FAAH plasmid DNA (15 μg) (OriGene Cat. No. TC119221, Genbank Accession No. NM_001441.1, 0.67 ug/uL) and a further incubation of 15 minutes at room temperature. The resulting solution was added into one dish of 30-40% confluent COS-7 cells in a drop-wise manner. The COS-7 cell dish was subsequently incubated for 48 hours. The cells are then harvested.
Media was aspirated from the dishes and the cells rinsed with 10 mL PBS. The PBS was removed and 3 mL of PBS added to the dish. The dish was scraped to resuspend the cells, and the subsequent cell suspension collected into a 15 mL conical tube. The cells were pelleted by centrifugation at 1200 rpm for 5 minutes in a bench top centrifuge. PBS was removed and the cell pellet snap frozen in liquid nitrogen and stored at −80° C.
COS-7 Cells—FAAH Purification: • (1) Fractionation: Frozen cell pellets from transient transfections were thawed on ice and resuspended in 12.5 mM Hepes pH 8.0, 100 mM NaCl, 1 mM EDTA (10 mL/0.2 g cell pellet). The pellets were dounce homogenized and then sonicated to produce cell extract. The cell extract was subsequently centrifuged at 1000 g to remove cellular debris. The pellet was discarded and the supernatant centrifuged at 13,000 g for 20 minutes. The pellet contained membrane bound FAAH. The supernatant was discarded and the pellet resolubilized. • (2) Re-solubilization: The fraction of interest, (13,000 g, membrane fraction) was re-suspended in 2.3 mL re-suspension buffer (20 mM Hepes pH 7.8, 10% v/v Glycerol, 1 mM EDTA, 1% Triton X-100) and the sample incubated on ice for 1 hour and then centrifuged to remove any particulate matter. The supernatant containing solubilized human FAAH was aliquoted and snap frozen in liquid nitrogen and stored at −80° C. until use. • (3) Characterization: Protein Concentration determined by Bradford assay. • SDS gel and Western blot to confirm presence of FAAH • FAAH activity assay • Km determination—96-well assay • Linear dependence—96-well assay • Standard compound Ki determination—384-well assay
Rat FAAH biochemical assays were carried out in a 96 well flat bottom black non-treated polystyrene plates (Corning Costar Catalogue #3915). FAAH reaction buffer: 50 mM Hepes (pH 7.5), 1 mM EDTA, 0.2% Triton X-100. FAAH substrate—AMC Arachidonoyl Amide (Cayman Chemicals Company, Catalog #10005098). The reaction was read in an Envision microtiter plate reader [Excitation filter 355 nm (40 nm bandpass); Emmision filter 460 nm (25 nm bandpass)]. The raw fluorescence was plotted on the y axis and the inhibitor concentration on the x axis to give a dose response inhibition curve. The data was fitted to a single site competitive inhibition equation, fixing the Km for the rat and human enzyme to 12 μM and 9 μM respectively. […]

[1] = class given in each Example, read-out: Activity (Ki, inhibition of human FAAH)
[2] = Table A, read-out: Activity (Ki) of other boronic acids tested, Table A

| SMILES | Ki [1] | Ki [2] |
| --- | --- | --- |
| OB(O)c1ccc([C@@H]2OC[C@H](c3ccccc3)O2)cc1 [Compound 180] | ≤ 10 nM |  |
| OB(O)c1ccccc1-c1nc2ncccc2o1 [Compound 259] | > 1000 nM |  |
| COc1cccc(Oc2ccc3cc(B(O)O)ccc3n2)c1 [Compound 189] | ≤ 10 nM |  |
| O=C(CCB(O)O)N1CCN(C(=O)OCc2ccccc2)CC1 [Compound 322] | 10 to 100 nM |  |
| O=C(/C=C/c1cc(OCCc2ccccc2)ccc1B(O)O)NCc1cccnc1 [Compound 287] | > 1000 nM |  |
| O=C(/C=C/c1cc(OCCc2ccccc2)ccc1B(O)O)NCc1ccco1 [Compound 288] | > 1000 nM |  |
| O=C(CCc1ccccc1)N1CCC(Cc2nc3ccc(B(O)O)cc3o2)CC1 [Compound 306] | ≤ 10 nM |  |
| OB(O)c1ccc2nc(Nc3ccccc3)ccc2c1 [Compound 206] | ≤ 10 nM |  |
| O=C(CCN1C(=O)C=CC1=O)N/N=C/c1cc(OCCc2ccccc2)ccc1B(O)O [Compound 119] | ≤ 10 nM |  |
| O=C(Cc1ccccc1)N/N=C/c1cc(OCc2ccccc2)ccc1B(O)O [Compound 124] | 10 to 100 nM |  |
| OB(O)c1ccc(-c2cccc3ncccc23)cc1F [Compound 229] | 10 to 100 nM |  |
| O=C(c1ccccc1)c1ccc2cc(B(O)O)ccc2n1 [Compound 319] | ≤ 10 nM |  |
| OB(O)c1ccc2nc(Oc3ccccn3)ccc2c1 [Compound 215] | ≤ 10 nM |  |
| O=C(Nc1ccccn1)c1ccc(B(O)O)cc1 |  | 10 to 100 nM |
| O=C1c2ccc(B(O)O)cc2C(=O)N1CCc1ccccc1 [Compound 309] | ≤ 10 nM |  |
| OB(O)c1ccc(-c2ncc(-c3ccccc3)s2)cc1F [Compound 3] | > 1000 nM |  |
| CN(Cc1ccccc1)Cc1cc(OCc2ccccc2)ccc1B(O)O [Compound 110] | 100 to 1000 nM |  |
| OB(O)c1ccc(-c2cccc3[nH]ccc23)cc1F [Compound 230] | 10 to 100 nM |  |
| O=C(CCc1ccccc1)N/N=C/c1ccccc1B(O)O [Compound 116] | > 1000 nM |  |
| CCCc1cnc(-c2cc(OCCc3ccccc3)ccc2B(O)O)s1 [Compound 276] | 10 to 100 nM |  |
| OB(O)c1ccc([C@H]2OC[C@H](c3ccccc3)O2)cc1 [Compound 179] | ≤ 10 nM |  |
| CC(C)(C)OC(=O)Nc1cccc(NC(=O)/C=C/c2ccccc2B(O)O)c1 [Compound 113] | > 1000 nM |  |
| Cc1cc(Oc2ccccc2)nc2ccc(B(O)O)cc12 [Compound 213] | ≤ 10 nM |  |
| O=C(Cc1ccccc1)N/N=C/c1ccccc1B(O)O [Compound 121] | > 1000 nM |  |
| OB(O)c1cc2oc(CCc3ccccc3)nc2cc1F [Compound 253] | ≤ 10 nM |  |
| OB(O)c1ccc(OCc2ccccc2)cc1/C=N/OCc1ccccc1 [Compound 115] | 10 to 100 nM |  |
| OB(O)c1ccc2nc(N3CCCc4ccccc43)ccc2c1 [Compound 207] | 10 to 100 nM |  |
| O=S(=O)(c1ccccc1)N1CCC(c2ccc(B(O)O)cc2)CC1 [Compound 236] | 10 to 100 nM |  |
| OB(O)c1ccc2nc(Oc3ccccc3Cl)ccc2c1 [Compound 196] | ≤ 10 nM |  |
| CN(CCc1ccc(B(O)O)c(F)c1)C(=O)OC(C)(C)C [Compound 311] | ≤ 10 nM |  |

Results, then the compound that gave them:

| Ki [1] | Ki [2] | SMILES |
| --- | --- | --- |
| ≤ 10 nM |  | CCCCCc1nnc(-c2ccc(B(O)O)cn2)o1 [Compound 9] |
|  | 100 to 1000 nM | OCCCc1ccc(B(O)O)cc1 |
| > 1000 nM |  | CCCCCc1nnc(-c2ccccc2B(O)O)o1 [Compound 281] |
| 100 to 1000 nM |  | O=C1CCCN1CCc1nnc(-c2ccc(B(O)O)cc2)o1 [Compound 10] |
| ≤ 10 nM |  | CCCCOc1ccc2cc(B(O)O)ccc2n1 [Compound 191] |
| ≤ 10 nM |  | CN(CCc1ccc(B(O)O)cc1)C(=O)OC(C)(C)C [Compound 234] |
| > 1000 nM |  | CCCc1nnc(-c2cc(F)ccc2B(O)O)o1 [Compound 261] |
| 10 to 100 nM |  | OB(O)c1ccc(-c2nnc(Cc3ccccc3)o2)cc1F [Compound 69] |
| ≤ 10 nM |  | OB(O)c1ccc(-c2nnc(CCCC(F)(F)F)o2)cc1 [Compound 40] |
| ≤ 10 nM |  | OB(O)c1csc(-c2nnc(CCc3ccccc3)o2)c1 [Compound 58] |
| > 1000 nM |  | OB(O)c1ccccc1-c1nnc(CCc2ccccc2)o1 [Compound 265] |
| ≤ 10 nM |  | CN(Cc1ccccc1)c1ccc2cc(B(O)O)ccc2n1 [Compound 204] |
| > 1000 nM |  | O=C1CCCN1CCc1nnc(-c2ccccc2B(O)O)o1 [Compound 263] |
| 10 to 100 nM |  | OB(O)c1ccc(-c2ncc(-c3ccccc3)o2)cc1 [Compound 2] |
| 10 to 100 nM |  | OB(O)c1ccc(Cn2cc(-c3ccccc3)nn2)cc1 [Example 122] |
| ≤ 10 nM |  | OB(O)c1ccc(-c2nnc(-c3cccc4c3OC(F)(F)O4)o2)cc1 [Compound 52] |
| ≤ 10 nM |  | OB(O)c1csc(-c2nnc(Cc3ccccc3)o2)c1 [Compound 60] |
| > 1000 nM |  | CCCc1nnc(-c2ccsc2B(O)O)o1 [Compound 72] |
| 100 to 1000 nM |  | CCCCCC1(CCCCC)CC(c2ccc(B(O)O)cc2)=NO1 [Compound 164] |

| Ki [1] | Ki [2] | SMILES |
| --- | --- | --- |
| ≤ 10 nM |  | COc1cccc(-c2nnc(-c3ccc(B(O)O)cc3)o2)c1 [Compound 66] |
| ≤ 10 nM |  | OB(O)c1ccc(-c2cn(Cc3ccccc3)nn2)cc1 [Example 117] |
| ≤ 10 nM |  | CCC(C)CCc1nnc(-c2ccc(B(O)O)cc2)o1 (stereo not shown) [Compound 32] |
|  | > 1000 nM | CC(=O)NCc1ccc(B(O)O)cc1 |
| 10 to 100 nM |  | OB(O)c1ccc(Cc2nnc(-c3ccccc3)o2)cc1 [Compound 64] |
| ≤ 10 nM |  | OB(O)c1ccc(-c2nnc(Cc3ccccc3)o2)cc1 [Compound 70] |
| ≤ 10 nM |  | CCCCc1nnc(-c2ccc(B(O)O)cc2)o1 [Compound 42] |
| ≤ 10 nM |  | OB(O)c1ccc(-n2cc(-c3ccccc3)cn2)cc1 [Compound 231] |
| 100 to 1000 nM |  | Cc1nc(-c2nnc(-c3cc(OCCc4ccccc4)ccc3B(O)O)o2)cs1 [Compound 269] |
| 10 to 100 nM |  | OB(O)c1ccc(-c2nnc(-c3ccccc3)o2)cc1F [Compound 79] |
| ≤ 10 nM |  | CN(CCCc1ccc(B(O)O)cc1)C(=O)OC(C)(C)C [Compound 235] |
| 10 to 100 nM |  | OB(O)c1ccc(-n2nncc2-c2ccccc2)cc1 [Compound 144] |
| ≤ 10 nM |  | CCCCCc1nnc(-c2ccc(B(O)O)cc2)o1 [Compound 30] |
| 100 to 1000 nM |  | Cc1nnc(/C=C/c2ccccc2B(O)O)o1 [Compound 28] |
| 10 to 100 nM |  | OB(O)c1ccc(-c2nnc(-c3ccccc3)o2)c(F)c1 [Compound 67] |
| ≤ 10 nM |  | OB(O)c1ccc2nc(Cc3ccccc3)oc2c1 [Compound 241] |
| 100 to 1000 nM |  | CC(=O)NCCc1nnc(-c2ccc(B(O)O)cc2)o1 [Compound 85] |
| 10 to 100 nM |  | OB(O)c1csc(-c2nnc(-c3ccccc3)o2)c1 [Compound 61] |
